Results: patent US8110371B2, “Identifying organ damage” (The University Court of the University of Edinburgh, priority 2007, dated 2012)

Legend:
[1] = NAC as antidote for APAP overdose; cited from earlier work
[2] = system: c-Jun; assay: Western blot for c-Jun in urine exosomes of paracetamol overdose patients; format: in vivo, human; conditions: following paracetamol-induced liver injury in humans, FIG. 7
Experimental: (§1) Six normal male volunteers (aged 23-40, MREC ethics approval number 06/MRE00/67) provided urine samples in sterile 50 ml plastic containers. To each urine sample a protease inhibitor was added (50:1 of 1 mM Leupeptin). […] 3 out of 6 of these patients had elevated serum alanine transaminase (ALT) 24 hours after admission indicating significant liver injury. The samples were centrifuged at 15000×g for 15 minutes at 4° C. to pellet the urinary sediment. The ‘15000×g supernatant’ was then centrifuged at 100 000 rpm for 1 hour at 4° C. to obtain low density urinary exosome pellets. The 100 000 rpm supernatant was decanted and replaced with an additional ‘15 000×g supernatant’ and ultracentrifuged again. The ultracentrifugation step was repeated 4-6 more times to harvest the exosome pellets from 18-24 ml of 15 000×g supernatant. Pellets were resuspended in 50 μl isolation solution (10 mM triethanolamine/250 mM sucrose (pH 7.6)).
(§2) The amount of urine and MP protein was determined using the BCA™ Protein Assay Kit (Pierce, USA) and following the manufacturer's instructions. 20 μg of normal urine exosome samples were loaded per well. Loading amounts for each of the paracetemol overdose samples were normalised for urinary creatinine to account for differences in urine concentration. […]

[3] = Exosomal protein concentration of urine in paracetamol overdose patients (BCA protein assay); format: in vivo, human; conditions: 4 hours after paracetamol overdose
Experimental: as §1, §2

Row | SMILES | patients with adverse reactions [1] | urinary microparticle concentration of C-Jun protein [2] | increase in exosomal proteinuria compared to normal ([3]; pooled sample from 3 patients with organ injury) | increase in exosomal protein compared to normal healthy individuals ([3]; pooled samples from 3 patients without organ injury)
1 | CC(=O)N[C@@H](CS)C(=O)O [N-acetylcysteine] | around 15% |  |  | 
2 | CC(=O)Nc1ccc(O)cc1 [paracetamol, N-(4-hydroxyphenyl)ethanamide] |  | increased | ~37 fold | about 7 fold
